The values below come from patent US6159959A, “Combined estrogen and antiestrogen therapy” (American Home Products Corporation, priority 1999, dated 2000).

In one experiment the target is T1, human estrogen receptor (Homo sapiens, UniProt P03372).
T1 construct: expressed in transfected cells; host or cells: CHO (Chinese Hamster Ovary) cells, stably transfected
Briefly: 2× VIT ERE Infection Assay (infection luciferase activity). It counts as cell-based. The conditions noted are these: 24 h, read-out: Infection Luciferase Activity, 1 uM. How it is done:
48 h prior to treatment the growth medium was replaced with DMEM lacking phenol red+10% dextran coated charcoal stripped FBS (treatment medium).
Reporter DNA (Promega plasmid pGL2 containing two tandem copies of the vitellogenin ERE in front of the minimal thymidine kinase promoter driving the luciferase gene) was combined with the B-galactosidase expression plasmid pCH110 (Pharmacia) and carrier DNA (pTZ18U) in the following ratio:
20 uL of this mixture was added to each well of cells and remained on the cells for 16 h. […] Each treatment condition was performed on 8 wells (n=8) which were incubated for 24 h prior to the luciferase assay.
After 24 h exposure to compounds, the media was removed and each well washed 2× with 125 uL of PBS lacking Mg^++ and Ca^++. After removing the PBS, 25 uL of Promega lysis buffer was added to each well and allowed to stand at room temperature for 15 min, followed by 15 min at -80° C. and 15 min at 37° C.
The luciferan substrate (Promega) was added in 100 uL aliquots to each well automatically by the luminometer and the light produced (relative light units) was read 10 seconds after addition.
To the remaining 5 uL of lysate 45 uL of PBS was added. Then 50 uL of Promega B-galactosidase 2× assay buffer was added, mixed well and incubated at 37° C. for 1 hour. A plate containing a standard curve (0.1 to 1.5 milliunits in triplicate) was set up for each experimental run. The plates were analyzed on a Molecular Devices spectrophotometric plate reader at 410 nm. The optical densities for the unknown were converted to milliunits of activity by mathematical extrapolation from the standard curve.
The luciferase data was generated as relative light units (RLUs) accumulated during a 10 second measurement and automatically transferred to a JMP (SAS Inc) file where background RLUs were subtracted. The B-galactosidase values were automatically imported into the file and these values were divided into the RLUs to normalize the data. The mean and standard deviations were determined from a n=8 for each treatment.

A further experiment has as its target T2, estrogen receptor (Homo sapiens, UniProt P03372).
T2 construct: expressed in transfected cells; host or cells: CHO cells overexpressing the receptor; cytosol (100,000 g supernatant)
T2 sequence (P03372 1-595): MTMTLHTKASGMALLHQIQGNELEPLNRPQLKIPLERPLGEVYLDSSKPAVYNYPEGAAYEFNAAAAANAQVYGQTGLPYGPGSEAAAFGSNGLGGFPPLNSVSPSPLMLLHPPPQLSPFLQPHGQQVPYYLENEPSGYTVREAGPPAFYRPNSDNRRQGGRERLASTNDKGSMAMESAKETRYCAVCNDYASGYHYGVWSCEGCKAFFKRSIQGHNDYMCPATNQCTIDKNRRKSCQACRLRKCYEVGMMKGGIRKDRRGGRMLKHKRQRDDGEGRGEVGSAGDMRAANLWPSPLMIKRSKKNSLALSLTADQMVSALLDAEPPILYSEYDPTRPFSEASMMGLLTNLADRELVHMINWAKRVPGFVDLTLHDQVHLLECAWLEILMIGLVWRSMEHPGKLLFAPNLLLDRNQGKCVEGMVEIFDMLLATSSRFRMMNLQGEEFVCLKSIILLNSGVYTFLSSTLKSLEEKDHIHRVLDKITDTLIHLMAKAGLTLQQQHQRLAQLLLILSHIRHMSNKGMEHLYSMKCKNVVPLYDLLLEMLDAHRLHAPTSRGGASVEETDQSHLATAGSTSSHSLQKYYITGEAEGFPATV
Briefly: In vitro Estrogen Receptor Binding Assay (competition with [3H]-17β-estradiol). The conditions noted are these: compared with indenoindole #6. How it is done:
CHO cells overexpressing the estrogen receptor were grown in 150 mm^2 dishes in DMEM+10% dextran coated charcoal, stripped fetal bovine serum. The plates were washed twice with PBS and once with 10 mM Tris-HCl, pH 7.4, 1 mM EDTA. Cells were harvested by scraping the surface and then the cell suspension was placed on ice. Cells were disrupted with a hand-held motorized tissue grinder using two, 10-second bursts. The crude preparation was centrifuged at 12,000 g for 20 minutes followed by a 60 minute spin at 100,000 g to produce a ribosome free cytosol. The cytosol was then frozen and stored at -80° C. […]
The competition assay was performed in a 96-well plate (polystyrene*) which binds <2.0% of the total input [^3 H]-17β-estradiol and each data point was gathered in triplicate. […] Samples were counted to 2% or 10 minutes, whichever occurs first. […] 17βestradiol, wells containing radioactivity and cytosol, but not processed with charcoal were included to quantitate amounts of available isotope. Also, wells containing radioactivity but no cytosol were processed with charcoal to estimate unremovable DPM of [^3 H] […]
Counts per minute (CPM) of radioactivity were automatically converted to disintegrated per minute (DPM) by the Beckman LS 7500 Scintillation Counter using a set of quenched standards to generate a H# for each sample. […]

The subject of a further experiment is ovariectomized rat. The conditions noted are these: cited from earlier work.
The test system of a further experiment is bone. The settings on record: in humans; cited from earlier work.
In a further experiment the test system is uterus. The conditions noted are these: in vivo; cited from earlier work.

On to `COc1ccc2c(c1)Cc1c-2n(Cc2ccc(OCCN3CCCCC3)cc2)c2ccc(O)cc12` [Cmpd. 6, 2-Methoxy-5-[4-(2-piperidin-1-yl-ethoxy)-benzyl]-5,10-dihydro-indeno[1,2-b]indol-8ol], for which, on human estrogen receptor, the activation at 1 µM is -2%.
Turning to `COc1ccc2c(c1)CCc1c-2n(Cc2ccc(OCCN3CCCCC3)cc2)c2ccc(O)cc12` [Cmpd. 21, 3-Methoxy-11-[4-(2-piperidin-1-yl-ethoxy)-benzyl]-5,11-dihydro-6H-benzo[a]carbazol-8-ol], the “bind to the ER receptor (comparison in words)” value at estrogen receptor is “bind better to the ER receptor than the indenoindole #6”. Moreover, the activation at 1 µM at human estrogen receptor was -7%.
Taken in the same sequence, the figures for `COc1ccc2c(c1)CCc1c-2n(Cc2ccc(OCCN3CCCCCC3)cc2)c2ccc(O)cc12` [Cmpd. 22, 11-[4-(2-Azepan-1-yl-ethoxy)-benzyl]-3-methoxy-5,11-dihydro-6H-benzo[a]carbazol-8-ol] were “bind better to the ER receptor than the indenoindole #6” and 1%.
Turning to `O=C(c1ccc(OCCN2CCCCC2)cc1)c1c(-c2ccc(O)cc2)sc2cc(O)ccc12` [Raloxifene], the “ability to spare bone” value in the experiment on ovariectomized rat is listed as “maintaining the ability to spare bone”. In addition, in the experiment with ovariectomized rat (compared with Tamoxifen), the “stimulation of uterine growth” value is recorded as “stimulate uterine growth in the ovariectomized rat to a lesser extent than Tamoxifen”.
With `CC/C(=C(\c1ccccc1)c1ccc(OCCN(C)C)cc1)c1ccccc1` [Tamoxifen], the “effect on the bone” value with bone is listed as “estrogen agonist-like effect on the bone”. For the same molecule, the “agonism in the uterus” value in the experiment on uterus is given as “partial agonist in the uterus”.
